Among the data in the Kinase Knowledgebase extract (Sharma et al. 2016) are inhibition and IC50 values, retold here.

In one assay the test system is MAPK14 (BALB/cJ mice). The assay can be described thus: In vivo Inhibition of LPS-induced TNF-alpha Production. As to conditions: dose or concentration not given here.
For the next assay, the target named is MAPK14 (human) (UniProt Q16539). The experiment in a line: In vitro Inhibition of TNF-alpha Production in PBMC Cells.
Sequence of MAPK14 (human) (Q16539 whole entry, looked up): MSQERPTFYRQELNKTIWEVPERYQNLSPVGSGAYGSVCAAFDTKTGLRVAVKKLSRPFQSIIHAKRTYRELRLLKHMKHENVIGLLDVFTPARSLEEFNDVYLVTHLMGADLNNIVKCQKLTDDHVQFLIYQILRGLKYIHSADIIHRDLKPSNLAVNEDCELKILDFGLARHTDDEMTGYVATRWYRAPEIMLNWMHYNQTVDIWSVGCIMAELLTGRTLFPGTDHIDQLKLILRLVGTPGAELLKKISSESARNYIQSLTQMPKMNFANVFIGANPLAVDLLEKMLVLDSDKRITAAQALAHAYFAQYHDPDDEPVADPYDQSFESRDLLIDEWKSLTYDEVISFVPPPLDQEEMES

The term inhibition denotes the change of the read-out against control, counted positive when it falls. One may read the IC50 as the concentration needed to halve the response being measured. High values mean a need for much substance, low ones inhibition by little substance. On to `CCn1cc(-c2ccncc2)c(-c2ccc(F)cc2)c1C(=O)OC`, for which the inhibition in the assay with MAPK14 (BALB/cJ mice) was determined as 53%. Moreover, the IC50 at MAPK14 (human) amounted to 108 nM.

With `COC(=O)C1CCn2c(NCCN3CCOCC3)c(-c3ccncc3)c(-c3ccc(F)cc3)c2C1=O` (stereo unspecified), the inhibition with MAPK14 (BALB/cJ mice) came out at 71%. At MAPK14 (human), the IC50 worked out at 77 nM.

Consider `COC(=O)C1Cn2cc(-c3ccncc3)c(-c3ccc(F)cc3)c2C1=O` (stereo unspecified), for which the inhibition in the assay with MAPK14 (BALB/cJ mice) is 44.7%. In addition, at MAPK14 (human), the IC50 is 29 nM.

Turning to `COCC#Cc1c(-c2ccc(F)cc2)c(-c2ccncc2)c(C(=O)OC)n1C`, in the assay with MAPK14 (BALB/cJ mice), the inhibition is -5%. The same molecule came in with an IC50 on MAPK14 (human) of 443 nM.

For the molecule `CCCc1[nH]cc(-c2ccc(F)cc2)c1-c1ccnc(N[C@@H](C)c2ccccc2)n1`, the inhibition in the assay on MAPK14 (BALB/cJ mice) was -19%. The molecule also had an IC50 on MAPK14 (human) of 10 nM.

Take `C=CC#Cc1c(-c2ccc(F)cc2)c(-c2ccncc2)c(C(=O)OC)n1C`: in the assay on MAPK14 (BALB/cJ mice), the inhibition is -20%. On MAPK14 (human), the IC50 came to 34 nM.

For `CCn1cc(-c2ccncc2)c(-c2ccc(F)cc2)c1CO`, the inhibition in the assay with MAPK14 (BALB/cJ mice) was found to be 48%. In addition, the IC50 at MAPK14 (human) stood at 70 nM.

For `Fc1ccc(-c2cn3c(c2-c2ccncc2)CNCC3)cc1`, the inhibition with MAPK14 (BALB/cJ mice) turned out to be 71%. For the same molecule, the IC50 against MAPK14 (human) was 208 nM.

With `Cn1cc(-c2ccncc2)c(-c2ccc(F)cc2)c1CNC(=O)Nc1ccccc1`, the inhibition in the assay with MAPK14 (BALB/cJ mice) was 82%. At MAPK14 (human), this molecule gave an IC50 of 27 nM.

With `CCOC(=O)c1[nH]cc(-c2ccncc2)c1-c1ccc(C)cc1`, the inhibition in the assay on MAPK14 (BALB/cJ mice) was -218%. For the same molecule, the IC50 against MAPK14 (human) amounted to 136 nM.

Take `COC(=O)c1c(-c2ccc(F)cc2)c(-c2ccncc2)c(N2CCN(CC3CC3)CC2)n1C`: the inhibition in the assay with MAPK14 (BALB/cJ mice) was 66.3%. The molecule further yielded an IC50 on MAPK14 (human) of 269 nM.

With `Fc1ccc(-c2cn3c(c2-c2ccncc2)CN(Cc2ccccc2)CC3)cc1`, in the assay on MAPK14 (BALB/cJ mice), the inhibition was -6%. The molecule further came in with an IC50 on MAPK14 (human) of 11 nM.

As for `COC(=O)c1c(-c2ccc(F)cc2)c(-c2ccncc2)c(Nc2ccc(N3CCOCC3)cc2)n1C`, the inhibition in the assay with MAPK14 (BALB/cJ mice) was determined as 29%. At MAPK14 (human), this molecule displayed an IC50 of 1560 nM.

Turning to `CCOC(=O)c1c(-c2cccc(C(F)(F)F)c2)c(-c2ccncc2)c(N2CCNCC2)n1C`, the inhibition in the assay with MAPK14 (BALB/cJ mice) was 83%. The IC50 on MAPK14 (human) was determined as 21 nM.

As for `COC(=O)c1c(-c2ccc(F)cc2)c(-c2ccncc2)c(N2CCN(c3cccc(C(C)=O)c3)CC2)n1C`, in the assay on MAPK14 (BALB/cJ mice), the inhibition is -21%. The IC50 on MAPK14 (human) was determined as 8 nM.

`COC(=O)c1c(-c2ccc(F)cc2)c(-c2ccncc2)c(NCc2cccc(OC)c2)n1C`: in the assay on MAPK14 (BALB/cJ mice), the inhibition was found to be 63%. Further, on MAPK14 (human), the IC50 was determined as 407 nM.

For `CCCc1c(-c2ccnc(SC)n2)c(-c2ccc(F)cc2)cn1CCCN(C)C`, in the assay with MAPK14 (BALB/cJ mice), the inhibition is -37%. The molecule further came in with an IC50 against MAPK14 (human) of 148 nM.

With `Cn1cc(-c2ccc(F)cc2)c(-c2ccncc2)c1N1CCNCC1`, the inhibition in the assay with MAPK14 (BALB/cJ mice) was determined as 75%. Further, the IC50 at MAPK14 (human) came out at 15 nM.

Turning to `COC(=O)c1c(-c2ccc(F)cc2)c(-c2ccncc2)c(N2CCN(S(C)(=O)=O)CC2)n1C`, the inhibition with MAPK14 (BALB/cJ mice) is -29%. Moreover, the IC50 on MAPK14 (human) turned out to be 5860 nM.

As to `CCN1CCN(c2c(-c3ccncc3)c(-c3ccc(F)cc3)c(C(=O)OC)n2C)CC1`, the inhibition in the assay with MAPK14 (BALB/cJ mice) was found to be 67.8%. At MAPK14 (human), the IC50 amounted to 135 nM.

`COC(=O)c1c(-c2ccc(F)cc2)c(-c2ccncc2)c(Nc2cccnc2)n1C`: in the assay with MAPK14 (BALB/cJ mice), the inhibition is -10.5%. The IC50 against MAPK14 (human) is 57 nM.

Take `CCN1C(=O)c2c(-c3ccncc3)c(-c3ccc(F)cc3)cn2C1=O`: the inhibition in the assay on MAPK14 (BALB/cJ mice) amounted to 72%. The IC50 against MAPK14 (human) is 401 nM.

Take `Fc1ccc(-c2c[nH]c(CN3CCNCC3)c2-c2ccncc2)cc1`: the inhibition with MAPK14 (BALB/cJ mice) was -41%. In addition, at MAPK14 (human), the IC50 turned out to be 63 nM.

`COC(=O)c1c(-c2ccc(F)cc2)c(-c2ccncc2)c(C2=CCNCC2)n1C`: the inhibition in the assay on MAPK14 (BALB/cJ mice) was determined as 96%. The concentration for half-maximal inhibition (IC50) against MAPK14 (human) was determined as 72 nM.

In the case of `CCNC(=O)c1[nH]cc(-c2ccc(F)cc2)c1-c1ccncc1`, the inhibition in the assay on MAPK14 (BALB/cJ mice) is -24%. Further, at MAPK14 (human), the IC50 amounted to 209 nM.

As to `CCOC(=O)c1c(-c2ccc(C)cc2)c(-c2ccncc2)c(N2CCNCC2)n1C`, the inhibition in the assay on MAPK14 (BALB/cJ mice) is 79%. Besides, at MAPK14 (human), the IC50 turned out to be 60 nM.

Take `COC(=O)c1c(-c2ccc(F)cc2)c(-c2ccncc2)c(N=CN(C)C)n1C`: the inhibition with MAPK14 (BALB/cJ mice) was found to be 6%. The same molecule had an IC50 against MAPK14 (human) of 5 nM.

With `CCC(=O)c1c(-c2ccc(F)cc2)c(-c2ccncc2)c(N2CCNCC2)n1C`, the inhibition in the assay with MAPK14 (BALB/cJ mice) is 32%. Further, the IC50 against MAPK14 (human) was found to be 67 nM.

Turning to `COC(=O)c1c(-c2ccc(F)cc2)c(-c2ccncc2)c(N2CCN(C(C)=O)CC2)n1C`, in the assay on MAPK14 (BALB/cJ mice), the inhibition came to 57%. This molecule also showed an IC50 against MAPK14 (human) of 1530 nM.

Regarding `COC(=O)c1c(-c2ccc(F)cc2)c(-c2ccncc2)c(N2CCN(C3CCCC3)CC2)n1C`, the inhibition in the assay on MAPK14 (BALB/cJ mice) worked out at 48.6%. This molecule yielded an IC50 against MAPK14 (human) of 139 nM.

As for `CNC(=O)c1c(-c2ccc(F)cc2)c(-c2ccncc2)c(N2CCNCC2)n1C`, the inhibition in the assay with MAPK14 (BALB/cJ mice) was -7%. Besides, at MAPK14 (human), the IC50 is 106 nM.

For the molecule `Cn1cc(-c2ccncc2)c(-c2ccc(F)cc2)c1-c1cnco1`, the inhibition in the assay with MAPK14 (BALB/cJ mice) came to 53%. At MAPK14 (human), this molecule had an IC50 of 59 nM.

On to `CN(Cc1ccccc1)Cc1[nH]cc(-c2ccc(F)cc2)c1-c1ccncc1`, for which the inhibition with MAPK14 (BALB/cJ mice) amounted to 37%. Also, the IC50 at MAPK14 (human) amounted to 91 nM.
